System: Staphylococcus aureus
Assay: Microbial antiadhesion test on reconstructed epidermis
Type: cell-based
Protocol: Before bacterial adhesion, the reconstructed epidermis is placed in contact for 2 hours with the composition of Example 1 at 37° C. 1 ml of bacterial suspension of Staphylococcus aureus at a concentration of 10^7 microorganisms/ml in Tryptone salt is then added thereto. After incubation for 24 hours at 37° C., the bacterial suspension is emptied out and five rinsings are performed with 1 ml of sterile distilled water. The reconstructed epidermis detached from its support is then ground using a processor in 18 ml of Tryptone salt. […] The adherent and viable cells are then counted. […]
A mixture of bacteria/test product, in the same ratio as in the antiadhesion test, is brought into contact for 24 hours at 37° C. The microorganisms are counted by tenfold dilution in Tryptone salt and inoculation, using a scraper, of 100 μl on Trypticase soybean agar. The colonies are counted after incubation for 24 hours at 37° C.
The quantitative results correspond to a reduction in the decimal logarithm of the mean number of viable Staphylococcus aureus adherent on the reconstructed epidermis after treatment with the test composition or test molecules, relative to the decimal logarithm of the mean number of viable Staphylococcus aureus adherent on the reconstructed epidermis after treating with water under the same conditions. […]

## CC(C)CCCC(C)CCCC(C)CCCC(C)(O)C(O)CO (centres unmarked) [Pure phytanetriol, 3,7,11,15-tetramethyl-1,2,3-hexadecanetriol]
Reconstructed epidermis pretreated 2 hours at 37° C., S. aureus 10^7 microorganisms/ml, incubation 24 hours at 37° C., relative to treatment with water, significant if difference greater than 0.5 log
  Activity Antiadhesion, Quantitative results: reduction in the decimal logarithm of the mean number of viable Staphylococcus aureus adherent on the reconstructed epidermis relative to water: −1.9 log
Term as a function of Log reduction of adhesion after 24 hours relative to the same test using water
  Activity Antiadhesion, Qualitative results: Good (between 1.5 and 2 log reduction relative to water)
